The target of this assay is USP30 (Homo sapiens (Human), UniProt Q70CQ3). As to the kind of experiment: USP30 biochemical FP or FI IC50 assay. The settings on record: read-out: IC50 range. Put shortly:
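Human USP30 preincubated 30 min at room temperature with compound (8-point series, 100 µM top final) in Tris pH 7.5, Tween 20, BSA, 5 mM β-mercaptoethanol, in duplicate. FP format: 50 nM TAMRA-peptide–isopeptide-ubiquitin substrate, ex 540/em 590. FI format: 100 nM ubiquitin-rhodamine 110, ex 487/em 535. Both read at 0 and after 2 h at room temperature.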
Chain of USP30 (Q70CQ3 57-517): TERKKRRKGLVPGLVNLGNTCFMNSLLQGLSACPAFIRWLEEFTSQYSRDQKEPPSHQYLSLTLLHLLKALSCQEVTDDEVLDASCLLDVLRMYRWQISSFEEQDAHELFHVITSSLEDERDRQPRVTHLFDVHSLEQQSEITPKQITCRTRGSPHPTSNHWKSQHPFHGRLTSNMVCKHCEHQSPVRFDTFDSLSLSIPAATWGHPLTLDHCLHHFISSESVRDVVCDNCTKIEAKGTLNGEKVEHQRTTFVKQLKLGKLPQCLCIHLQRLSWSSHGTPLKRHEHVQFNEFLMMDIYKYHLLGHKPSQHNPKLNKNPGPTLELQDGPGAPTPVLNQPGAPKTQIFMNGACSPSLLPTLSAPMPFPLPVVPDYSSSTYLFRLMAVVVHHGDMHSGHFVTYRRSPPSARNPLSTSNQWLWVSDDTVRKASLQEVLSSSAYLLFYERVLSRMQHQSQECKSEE
The IC50 is the midpoint of a concentration-inhibition curve. In the case of `CN(C(=O)Nc1ccc(-c2cnn(C)c2)cc1)[C@@H]1CCN(C#N)C1` [Example 194, (R)-1-(1-cyanopyrrolidin-3-yl)-1-methyl-3-(4-(1-methyl-1H-pyrazol-4-yl)phenyl)urea], the half-inhibitory concentration (IC50) is 100 to 1000 nM. Under `CN(C(=O)Nc1ccc(C(F)(F)F)cc1)[C@@H]1CCN(C#N)C1` [Example 195, (R)-1-(1-cyanopyrrolidin-3-yl)-1-methyl-3-(4-(trifluoromethyl)phenyl)urea] stands 100 to 1000 nM; under `N#CN1C[C@H]2CCN(C(=O)Nc3ccc(Cl)cc3F)[C@H]2C1` [Example 196, (3aR,6aR)-N-(4-chloro-2-fluorophenyl)-5-cyanohexahydropyrrolo[3,4-b]pyrrole-1(2H)-carboxamide], 100 to 1000 nM; under `N#CN1C[C@H]2CCN(C(=O)Nc3ccc(OC(F)(F)F)cc3F)[C@H]2C1` [Example 197, (3aR,6aR)-5-cyano-N-(2-fluoro-4-(trifluoromethoxy)phenyl)hexahydropyrrolo[3,4-b]pyrrole-1(2H)-carboxamide], less than 100 nM.

Turning to `N#Cc1cc(F)c(NC(=O)N2CC[C@@H]3CN(C#N)C[C@@H]32)cc1F` [Example 199, (3aR,6aR)-5-cyano-N-(4-cyano-2,5-difluorophenyl)hexahydropyrrolo[3,4-b]pyrrole-1(2H)-carboxamide], the IC50 is 100 to 1000 nM. On to `N#CN1C[C@H]2CCN(C(=O)Nc3cc(C(F)(F)F)ccc3F)[C@H]2C1` [Example 201, (3aR,6aR)-5-cyano-N-(2-fluoro-5-(trifluoromethyl)phenyl)hexahydro-pyrrolo[3,4-b]pyrrole-1(2H)-carboxamide], for which the IC50 was less than 100 nM. Under `N#CN1C[C@H]2CCN(C(=O)Nc3ccc(-c4ccccc4)cn3)[C@H]2C1` [Example 202, (3aR,6aR)-5-cyano-N-(5-phenyl-pyridin-2-yl)hexahydropyrrolo[3,4-b]pyrrole-1(2H)-carboxamide] stands less than 100 nM; under `N#CN1C[C@H]2CCN(C(=O)Nc3ccc(C(F)(F)F)cc3)[C@H]2C1` [Example 203, (3aR,6aR)-5-cyano-N-(4-(trifluoromethyl)-phenyl)-hexahydropyrrolo[3,4-b]pyrrole-1(2H)-carboxamide], less than 100 nM.

As for `CCN(C(=O)Nc1ccc(C(F)(F)F)cc1)[C@@H]1CCN(C#N)C1` [Example 204, (R)-1-(1-cyanopyrrolidin-3-yl)-1-ethyl-3-(4-(trifluoromethyl)phenyl)urea], the IC50 was less than 100 nM. Under `COCCN(C(=O)Nc1ccc(C(F)(F)F)cc1)C1CCN(C#N)C1` (stereo not drawn) [Example 205, 1-(1-cyanopyrrolidin-3-yl)-1-(2-methoxyethyl)-3-(4-(trifluoromethyl)phenyl)urea] stands 100 to 1000 nM; under `CCN(C(=O)c1ccc(-c2cnn(C)c2)c(F)c1)[C@@H]1CCN(C#N)C1` [Example 206, (R)-N-(1-cyanopyrrolidin-3-yl)-N-ethyl-3-fluoro-4-(1-methyl-1H-pyrazol-4-yl)benzamide], 100 to 1000 nM; under `CCN(C(=O)N1CC(c2ccccc2)C1)[C@@H]1CCN(C#N)C1` [Example 207, (R)-N-(1-cyanopyrrolidin-3-yl)-N-ethyl-3-phenylazetidine-1-carboxamide], 100 to 1000 nM. Under `N#CN1CC[C@@H](N2CCN(c3nc(-c4ccccc4)cs3)C2=O)C1` [Example 208, (R)-3-(2-oxo-3-(4-phenylthiazol-2-yl)imidazolidin-1-yl)pyrrolidine-1-carbonitrile] stands 100 to 1000 nM; under `N#CN1CC[C@@H](N2CCCN(c3nc(-c4ccccc4)cs3)C2=O)C1` [Example 209, (R)-3-(2-oxo-3-(4-phenylthiazol-2-yl)tetrahydropyrimidin-1(2 H)-yl)pyrrolidine-1-carbonitrile], 100 to 1000 nM; under `N#CN1CC[C@@H](N2CCN(c3cccc(N4CCOCC4)c3)C2=O)C1` [Example 210, (R)-3-(3-(3-morpholinophenyl)-2-oxoimidazolidin-1-yl)pyrrolidine-1-carbonitrile], 100 to 1000 nM.

For the origin of these results see patent US10343992B2, “1-cyano-pyrrolidine compounds as USP30 inhibitors” (MISSION THERAPEUTICS LIMITED, priority 2015, dated 2019).
